According to US20250205344A1, “2,4-DIOXOTETRAHYDROPYRIMIDINYL DERATIVES AS DEGRONS IN PROTACS” (GLAXOSMITHKLINE INTELLECTUAL PROPERTY DEVELOPMENT LIMITED, priority 2022, published 2025):
Counter-ions that a name gives are not always drawn.

Target: T1, Androgen Receptor (Homo sapiens, UniProt P10275, T878A)
T1 construct: the AR gene was modified, using CRISPR/Cas9 editing, so the expressed AR protein included an 11 amino acid HiBiT tag; endogenous in cells; host or cells: clonal LnCaP-derived line, AR gene edited by CRISPR/Cas9
Assay: Androgen Receptor Degradation Assay (Nano-Glo HiBiT)
Assay type: cell-based
Details: LNCaP, 18 h, HiBiT-tagged AR in human LnCaP cells, read-out: mean asymptote max
Summary of the method: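 LnCaP cells with CRISPR-knocked-in N-terminal HiBiT-tagged AR (10,000/well) treated 18 h at 37 °C with PROTACs over 11 threefold concentrations; lytic HiBiT luminescence normalised to DMSO (0%) and cell-free (100%) controls. Relative DC50 = 4-parameter fit inflection; absolute DC50 = 50% degradation interpolation; Dmax = maximum observed degradation.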

T1 sequence (P10275 whole entry T878A): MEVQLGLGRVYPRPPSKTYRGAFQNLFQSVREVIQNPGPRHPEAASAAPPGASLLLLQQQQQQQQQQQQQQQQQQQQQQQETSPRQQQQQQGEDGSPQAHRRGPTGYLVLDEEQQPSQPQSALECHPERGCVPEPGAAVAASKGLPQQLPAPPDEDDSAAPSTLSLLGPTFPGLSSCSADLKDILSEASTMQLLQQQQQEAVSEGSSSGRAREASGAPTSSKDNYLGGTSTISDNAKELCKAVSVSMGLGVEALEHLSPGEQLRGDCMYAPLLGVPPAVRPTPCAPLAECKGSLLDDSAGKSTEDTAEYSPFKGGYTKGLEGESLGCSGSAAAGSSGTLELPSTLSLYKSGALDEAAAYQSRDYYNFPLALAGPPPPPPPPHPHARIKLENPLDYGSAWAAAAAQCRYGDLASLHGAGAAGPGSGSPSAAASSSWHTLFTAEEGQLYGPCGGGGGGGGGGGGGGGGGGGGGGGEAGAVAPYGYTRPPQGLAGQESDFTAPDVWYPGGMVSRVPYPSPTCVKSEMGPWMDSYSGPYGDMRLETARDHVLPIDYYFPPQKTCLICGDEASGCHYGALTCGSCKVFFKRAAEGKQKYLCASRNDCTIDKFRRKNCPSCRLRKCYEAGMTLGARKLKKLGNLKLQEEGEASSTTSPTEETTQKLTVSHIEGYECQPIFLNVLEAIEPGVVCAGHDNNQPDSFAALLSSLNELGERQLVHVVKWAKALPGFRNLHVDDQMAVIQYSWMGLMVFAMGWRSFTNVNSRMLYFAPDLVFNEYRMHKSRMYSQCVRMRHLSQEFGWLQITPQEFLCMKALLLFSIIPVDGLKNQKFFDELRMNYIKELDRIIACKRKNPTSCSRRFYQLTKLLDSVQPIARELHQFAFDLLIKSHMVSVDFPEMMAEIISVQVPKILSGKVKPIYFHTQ
T1 sequence (Q96SW2 whole entry partner): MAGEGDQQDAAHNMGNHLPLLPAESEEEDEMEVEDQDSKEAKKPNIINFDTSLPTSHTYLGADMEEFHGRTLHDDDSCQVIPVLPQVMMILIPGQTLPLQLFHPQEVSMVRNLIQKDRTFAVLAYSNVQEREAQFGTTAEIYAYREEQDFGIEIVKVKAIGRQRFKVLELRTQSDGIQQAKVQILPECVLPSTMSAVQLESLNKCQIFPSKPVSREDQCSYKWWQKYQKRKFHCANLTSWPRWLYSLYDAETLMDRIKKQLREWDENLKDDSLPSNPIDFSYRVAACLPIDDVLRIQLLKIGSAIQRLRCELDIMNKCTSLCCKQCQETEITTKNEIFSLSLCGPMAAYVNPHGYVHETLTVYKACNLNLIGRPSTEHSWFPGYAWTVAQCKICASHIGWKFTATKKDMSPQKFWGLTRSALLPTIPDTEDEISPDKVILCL
T1 sequence (Q16531 whole entry partner): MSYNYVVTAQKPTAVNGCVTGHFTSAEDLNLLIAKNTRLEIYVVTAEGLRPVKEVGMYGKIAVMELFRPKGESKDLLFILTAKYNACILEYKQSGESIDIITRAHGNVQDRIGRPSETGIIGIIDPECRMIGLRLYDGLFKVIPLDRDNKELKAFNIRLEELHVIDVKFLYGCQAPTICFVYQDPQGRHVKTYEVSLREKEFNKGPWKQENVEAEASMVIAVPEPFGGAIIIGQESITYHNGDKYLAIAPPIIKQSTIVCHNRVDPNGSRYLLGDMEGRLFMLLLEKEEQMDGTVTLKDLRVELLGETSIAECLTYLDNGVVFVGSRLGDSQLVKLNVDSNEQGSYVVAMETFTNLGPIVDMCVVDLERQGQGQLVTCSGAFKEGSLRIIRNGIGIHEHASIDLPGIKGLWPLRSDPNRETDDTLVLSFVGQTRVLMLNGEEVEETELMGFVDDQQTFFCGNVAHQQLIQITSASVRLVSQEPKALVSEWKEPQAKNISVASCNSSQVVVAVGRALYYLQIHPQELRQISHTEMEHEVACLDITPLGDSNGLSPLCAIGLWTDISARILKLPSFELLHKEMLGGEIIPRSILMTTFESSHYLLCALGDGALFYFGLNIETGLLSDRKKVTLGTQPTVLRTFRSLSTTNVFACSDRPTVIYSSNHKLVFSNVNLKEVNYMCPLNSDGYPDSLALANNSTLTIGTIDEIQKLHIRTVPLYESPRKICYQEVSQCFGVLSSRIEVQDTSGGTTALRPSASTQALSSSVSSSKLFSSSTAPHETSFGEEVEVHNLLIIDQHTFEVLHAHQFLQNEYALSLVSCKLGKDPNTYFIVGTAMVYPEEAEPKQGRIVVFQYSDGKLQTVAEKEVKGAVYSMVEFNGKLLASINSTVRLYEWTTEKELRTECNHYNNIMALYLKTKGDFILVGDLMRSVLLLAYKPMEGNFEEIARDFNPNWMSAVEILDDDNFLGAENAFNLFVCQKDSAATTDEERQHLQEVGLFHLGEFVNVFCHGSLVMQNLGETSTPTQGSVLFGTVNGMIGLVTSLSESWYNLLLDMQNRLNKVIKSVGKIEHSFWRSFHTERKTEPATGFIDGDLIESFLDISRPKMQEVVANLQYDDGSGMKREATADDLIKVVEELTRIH

Structure (SMILES) | Dmax
N#Cc1ccc(O[C@H]2CC[C@H](NC(=O)c3ccc(N4CCC(CN5CCC[C@@](F)(Cn6ccc7c(N8CCC(=O)NC8=O)cccc76)C5)CC4)nn3)CC2)cc1Cl [EAR159, N-((1r,4r)-4-(3-Chloro-4-cyanophenoxy)cyclohexyl)-6-(4-(((S)-3-((4-(2,4-dioxotetrahydropyrimidin-1(2H)-yl)-1H-indol-1-yl)methyl)-3-fluoropiperidin-1-yl)methyl)piperidin-1-yl)pyridazine-3-carboxamide] | ≥ 50%
N#Cc1ccc(O[C@H]2CC[C@H](NC(=O)c3ccc(N4CCC(CN5CCC(n6ncc7c(N8CCC(=O)NC8=O)cc(C(F)(F)F)cc76)CC5)CC4)nn3)CC2)cc1Cl [EAR161, N-((1r,4r)-4-(3-Chloro-4-cyanophenoxy)cyclohexyl)-6-(4-((4-(4-(2,4-dioxotetrahydropyrimidin-1(2H)-yl)-6-(trifluoromethyl)-1H-indazol-1-yl)piperidin-1-yl)methyl)piperidin-1-yl)pyridazine-3-carboxamide] | ≥ 50%
C[C@@H]1CN(c2ccc(C#N)c(Cl)c2)[C@@H](C)CN1C(=O)c1ccc(OCCCCCN2CCC(n3ncc4c(N5CCC(=O)NC5=O)cncc43)CC2)nc1 [EAR164, 2-Chloro-4-((2S,5R)-4-(6-((5-(4-(4-(2,4-dioxotetrahydropyrimidin-1(2H)-yl)-1H-pyrazolo[3,4-c]pyridin-1-yl)piperidin-1-yl)pentyl)oxy)nicotinoyl)-2,5-dimethylpiperazin-1-yl)benzonitrile] | ≥ 50%
C[C@@H]1CN(c2ccc(C#N)c(Cl)c2)[C@@H](C)CN1C(=O)c1ccc(OCCCCCN2CCC(n3ccc4c(N5CCC(=O)NC5=O)cncc43)CC2)nc1 [EAR165, 2-Chloro-4-((2S,5R)-4-(6-((5-(4-(4-(2,4-dioxotetrahydropyrimidin-1(2H)-yl)-1H-pyrrolo[2,3-c]pyridin-1-yl)piperidin-1-yl)pentyl)oxy)nicotinoyl)-2,5-dimethylpiperazin-1-yl)benzonitrile] | ≥ 50%
N#Cc1ccc(O[C@H]2CC[C@H](NC(=O)c3ccc(C4CCN(CC(=O)N5CCC(n6ncc7c(N8CCC(=O)NC8=O)cccc76)CC5)CC4)nn3)CC2)cc1Cl [EAR167, N-((1r,4r)-4-(3-Chloro-4-cyanophenoxy)cyclohexyl)-6-(1-(2-(4-(4-(2,4-dioxotetrahydropyrimidin-1(2H)-yl)-1H-indazol-1-yl)piperidin-1-yl)-2-oxoethyl)piperidin-4-yl)pyridazine-3-carboxamide] | ≥ 50%
N#Cc1ccc(O[C@H]2CC[C@H](NC(=O)c3ccc(N4CCC(CN5CCC(F)(Cn6ccc7c(N8CCC(=O)NC8=O)cccc76)CC5)CC4)nn3)CC2)cc1Cl [EAR168, N-((1r,4r)-4-(3-Chloro-4-cyanophenoxy)cyclohexyl)-6-(4-((4-((4-(2,4-dioxotetrahydropyrimidin-1(2H)-yl)-1H-indol-1-yl)methyl)-4-fluoropiperidin-1-yl)methyl)piperidin-1-yl)pyridazine-3-carboxamide] | ≥ 50%
N#Cc1ccc(O[C@H]2CC[C@H](NC(=O)c3ccc(N4CCC(CN5CCC(n6ccc7c(N8CCC(=O)NC8=O)cccc76)CC5)CC4)cc3)CC2)cc1Cl [EAR169, N-((1r,4r)-4-(3-chloro-4-cyanophenoxy)cyclohexyl)-4-(4-((4-(4-(2,4-dioxotetrahydropyrimidin-1(2H)-yl)-1H-indol-1-yl)piperidin-1-yl)methyl)piperidin-1-yl)benzamide] | ≥ 50%
N#Cc1ccc(O[C@H]2CC[C@H](NC(=O)c3ccc(N4CCC(CN5CCC(n6ccc7c(N8CCC(=O)NC8=O)c(F)ccc76)CC5)CC4)nn3)CC2)cc1Cl [EAR170, N-((1r,4r)-4-(3-Chloro-4-cyanophenoxy)cyclohexyl)-6-(4-((4-(4-(2,4-dioxotetrahydropyrimidin-1(2H)-yl)-5-fluoro-1H-indol-1-yl)piperidin-1-yl)methyl)piperidin-1-yl)pyridazine-3-carboxamide, hydrochloride] | ≥ 50%
N#Cc1ccc(O[C@H]2CC[C@H](NC(=O)c3ccc(N4CCC(CN5CC[C@H](n6ccc7c(N8CCC(=O)NC8=O)cccc76)C5)CC4)nn3)CC2)cc1Cl [EAR171, N-((1r,4r)-4-(3-Chloro-4-cyanophenoxy)cyclohexyl)-6-(4-(((R)-3-(4-(2,4-dioxotetrahydropyrimidin-1(2H)-yl)-1H-indol-1-yl)pyrrolidin-1-yl)methyl)piperidin-1-yl)pyridazine-3-carboxamide, hydrochloride] | ≥ 50%
N#Cc1ccc(O[C@H]2CC[C@H](NC(=O)c3ccc(N4CCC(CN5CC[C@@H](n6ccc7c(N8CCC(=O)NC8=O)cccc76)C5)CC4)nn3)CC2)cc1Cl [EAR172, N-((1r,4r)-4-(3-Chloro-4-cyanophenoxy)cyclohexyl)-6-(4-(((S)-3-(4-(2,4-dioxotetrahydropyrimidin-1(2H)-yl)-1H-indol-1-yl)pyrrolidin-1-yl)methyl)piperidin-1-yl)pyridazine-3-carboxamide, hydrochloride] | ≥ 50%
N#Cc1ccc(O[C@H]2CC[C@H](NC(=O)c3ccc(N4CCC(CN5CC6(CC(n7ccc8c(N9CCC(=O)NC9=O)cccc87)C6)C5)CC4)nn3)CC2)cc1Cl [EAR173, N-((1r,4r)-4-(3-Chloro-4-cyanophenoxy)cyclohexyl)-6-(4-((6-(4-(2,4-dioxotetrahydropyrimidin-1(2H)-yl)-1H-indol-1-yl)-2-azaspiro[3.3]heptan-2-yl)methyl)piperidin-1-yl)pyridazine-3-carboxamide] | ≥ 50%
C[C@@H]1CN(c2ccc(C#N)c(Cl)c2)[C@@H](C)CN1C(=O)c1ccc(OCCN2CCC(n3ncc4c(N5CCC(=O)NC5=O)cncc43)CC2)nc1 [EAR174, 2-Chloro-4-((2S,5R)-4-(6-(2-(4-(4-(2,4-dioxotetrahydropyrimidin-1(2H)-yl)-1H-pyrazolo[3,4-c]pyridin-1-yl)piperidin-1-yl)ethoxy)nicotinoyl)-2,5-dimethylpiperazin-1-yl)benzonitrile] | ≥ 50%
N#Cc1ccc(O[C@H]2CC[C@H](NC(=O)c3ccc(N4CCC(CN5CCC(n6ccc7c(N8CCC(=O)NC8=O)nc(Cl)nc76)CC5)CC4)nn3)CC2)cc1Cl [EAR175, 6-(4-((4-(2-Chloro-4-(2,4-dioxotetrahydropyrimidin-1(2H)-yl)-7H-pyrrolo[2,3-d]pyrimidin-7-yl)piperidin-1-yl)methyl)piperidin-1-yl)-N-((1r,4r)-4-(3-chloro-4-cyanophenoxy)cyclohexyl)pyridazine-3-carboxamide] | ≥ 50%
N#Cc1ccc(O[C@H]2CC[C@H](NC(=O)c3ccc(N4CCC(CN5CCC(n6ccc7c(N8CCC(=O)NC8=O)cc(C(F)(F)F)cc76)CC5)CC4)nn3)CC2)cc1Cl [EAR176, N-((1r,4r)-4-(3-chloro-4-cyanophenoxy)cyclohexyl)-6-(4-((4-(4-(2,4-dioxotetrahydropyrimidin-1(2H)-yl)-6-(trifluoromethyl)-1H-indol-1-yl)piperidin-1-yl)methyl)piperidin-1-yl)pyridazine-3-carboxamide] | ≥ 50%
N#Cc1ccc(O[C@H]2CC[C@H](NC(=O)c3ccc(N4CCC(CN5CCC(c6ncc7c(N8CCC(=O)NC8=O)cccn67)CC5)CC4)nn3)CC2)cc1Cl [EAR177, N-((1r,4r)-4-(3-Chloro-4-cyanophenoxy)cyclohexyl)-6-(4-((4-(8-(2,4-dioxotetrahydropyrimidin-1(2H)-yl)imidazo[1,5-a]pyridin-3-yl)piperidin-1-yl)methyl)piperidin-1-yl)pyridazine-3-carboxamide] | ≥ 50%
N#Cc1ccc(O[C@H]2CC[C@H](NC(=O)c3ccc(OC4CN(C(=O)CN5CCC(n6ccc7c(N8CCC(=O)NC8=O)cccc76)CC5)C4)nn3)CC2)cc1Cl [EAR178, N-((1r,4r)-4-(3-Chloro-4-cyanophenoxy)cyclohexyl)-6-((1-(2-(4-(4-(2,4-dioxotetrahydropyrimidin-1(2H)-yl)-1H-indol-1-yl)piperidin-1-yl)acetyl)azetidin-3-yl)oxy)pyridazine-3-carboxamide] | ≥ 50%
N#Cc1ccc(O[C@H]2CC[C@H](NC(=O)c3ccc(N4CCC(CN5CCC(CCn6ccc7c(N8CCC(=O)NC8=O)cccc76)CC5)CC4)nn3)CC2)cc1Cl [EAR179, N-((1r,4r)-4-(3-chloro-4-cyanophenoxy)cyclohexyl)-6-(4-((4-(2-(4-(2,4-dioxotetrahydropyrimidin-1(2H)-yl)-1H-indol-1-yl)ethyl)piperidin-1-yl)methyl)piperidin-1-yl)pyridazine-3-carboxamide hydrochloride] | ≥ 50%
N#Cc1ccc(O[C@H]2CC[C@H](NC(=O)c3ccc(CN4CCC(n5ccc6c(N7CCC(=O)NC7=O)cccc65)CC4)cc3)CC2)cc1Cl [EAR180, N-((1r,4r)-4-(3-Chloro-4-cyanophenoxy)cyclohexyl)-4-((4-(4-(2,4-dioxotetrahydropyrimidin-1(2H)-yl)-1H-indol-1-yl)piperidin-1-yl)methyl)benzamide] | ≥ 50%
N#Cc1ccc(O[C@H]2CC[C@H](NC(=O)c3cnc(N4CCC(CN5CCC(n6ccc7c(N8CCC(=O)NC8=O)nccc76)CC5)CC4)cn3)CC2)cc1C(F)(F)F [EAR181, N-((1r,4r)-4-(4-Cyano-3-(trifluoromethyl)phenoxy)cyclohexyl)-5-(4-((4-(4-(2,4-dioxotetrahydropyrimidin-1(2H)-yl)-1H-pyrrolo[3,2-c]pyridin-1-yl)piperidin-1-yl)methyl)piperidin-1-yl)pyrazine-2-carboxamide] | ≥ 50%
N#Cc1ccc(O[C@H]2CC[C@H](NC(=O)c3cnc(N4CCC(CN5CCC(n6ccc7c(N8CCC(=O)NC8=O)nccc76)CC5)CC4)cn3)CC2)cc1Cl [EAR182, N-((1r,4r)-4-(3-Chloro-4-cyanophenoxy)cyclohexyl)-5-(4-((4-(4-(2,4-dioxotetrahydropyrimidin-1(2H)-yl)-1H-pyrrolo[3,2-c]pyridin-1-yl)piperidin-1-yl)methyl)piperidin-1-yl)pyrazine-2-carboxamide] | ≥ 50%
